What was measured:
[1] = system: neural progenitors in embryonic mouse brains; experiment: In utero electroporation of shRNA into E13 embryonic mouse brains; format: in vivo
Excerpt: • Mice. Swiss Webster pregnant female mice were purchased from Taconic (Hudson, N.Y.). • Cell Culture. AHPs were kindly provided by Dr. Gage (Lie, D. C. et al. Wnt signaling to regulates adult hippocampal neurogenesis. Nature 437, 1370-5 (2005)) and cultured under conditions described previously (Palmer, T. D., Takahashi, J. & Gage, F. H. The adult rat hippocampus contains primordial neural stem cells. Mol Cell Neurosci 8, 389-404 (1997)). Primary neural progenitors were isolated from E14 mouse embryos and cultured as described previously (Sanada, K. & Tsai, L. H. G protein betagamma subunits and AGS3 control spindle orientation and asymmetric cell fate of cerebral cortical progenitors. Cell 122, 119-31 (2005)). N2a and 293T cells were cultured in DMEM medium containing 10% FBS, L-glutamine, and penicillin/streptomycin. Wnt3a expressing L cells and untransfected L cells were obtained from ATCC (Manassas, Va.). Wnt3a conditional medium was produced according to the ATCC protocol. To induce AHP differentiation, FGF2 was removed from the culture medium and 1 μM retinoic acid/1% FBS was added to the medium for 4 days. • Reagents. Recombinant Wnt3a protein was obtained from Chemicon (Rosemont, Ill.). FGF2 was obtained from PeproTech (Rocky Hill, N.J.). Recombinant GST-GSK3β was obtained from Active Motif (Carlsbad, Calif.). Recombinant GST-β-catenin and GST-axin were obtained from Millipore (Billerica, Mass.). The GSK313 inhibitor, SB-216763, AR-A104418 and His-GSK3β, were obtained from Sigma-Aldrich (Sigma-Aldrich, St. Louis, Mo.). L803-MTS was obtained from Calbiochem (San Diego, Calif.). GST-AKT1 was obtained from Cell Signaling (Beverly, Mass.). GST-CASK-1 (CASK fragment from 316-415aa), GST-CASK-2 (CASK fragment from 777-974aa), and GST-p25 proteins were kindly provided by Dr. B. A. Samuels. Mouse DISC1 peptidel (40-78aa: GYMRSTAGSG IGFLSPAVGMPHPSSAG LTGQQSQHSQS; SEQ ID NO: 1) and Mouse DISC1 peptide 2 (195-238aa, […] GERGEAEGCLPSREAE; SEQ ID NO: 2) were synthesized by Chi Scientific (Maynard, Mass.). • Antibodies. The primary antibodies used in this study were the following: rabbit anti-DISC1 C-terminal antibody, mouse and rabbit anti-GFP antibodies (Invitrogen, Carlsbad, Calif.); affinity purified rabbit anti-DISC1 antibody (Novus, Littleton, Colo.) for immunohistochemistry; mouse anti-FLAG and mouse anti-Actin antibody; mouse anti-GSK3β antibody, mouse anti-β-catenin antibody, mouse anti-pY216 GSK3β antibody, and mouse anti-nestin antibody (BD Biosciences, San Diego, Calif.); rabbit anti-[…] β-catenin antibody, rabbit anti-pS9 GSK3β antibody, and mouse anti-cyclin to D1 antibody (Cell Signaling); mouse anti-Dv12 antibody, mouse anti-HA antibody, mouse anti-GST antibody, mouse anti-ubiquitin antibody, and rabbit anti-β-catenin antibody (Santa Cruz, Santa Cruz, Calif.); mouse Tuj-1 antibody (BABCO, Harrisburg, Pa.); mouse anti-BrdU antibody (DakoCytomation, Glostrup, Denmark); guinea pig anti-doublecortin antibody (Chemicon, Rosemont, Ill.); chicken anti-GFP antibody (Ayes Labs, Tigard, Oreg.); rabbit anti-pS10 Histone H3 antibody (Upstate, Lake Placid, N.Y.). • Constructs. The sequences for shRNAs targeting DISC1 are as follows: control shRNA: 5′-CGGCTGAAACAAGAGTTGG-3′ (SEQ ID NO:3); DISC1 shRNA-1: 5′-GGCAAACACTGTGA AGT GC-3′ (SEQ ID NO:4); DISC1 shRNA-2: 5′-[…]-3′ (SEQ ID NO:5)(Kamiya A. et al. A schizophrenia-associated mutation of DISC1 perturbs cerebral cortex development. Nat. Cell Biol 7, 1167-78 (2005)). DISC1 shRNA-1 recognizes both rat and mouse DISC1. […]

[2] = previously reported (Selenica et al. 2007); cited from earlier work
[3] = electroporated at E13, analyzed 3 days later

Molecule | BrdU labeling ([1]; BrdU 2 hours prior to collection) [%] | cell cycle exit index ([1]; electroporated E13, BrdU at E15, collected E16) [%] | GFP+Dcx+ cells ([1]; electroporated E13, sacrificed E16, SVZ) [%] | GFP positive cells in the VZ/SVZ [1, 3] [%] | GFP positive cells in the cortical plate [1, 3] [%] | mitotic index ([1]; pH3, electroporated E13, sacrificed E15) [%] | crossing of the blood-brain barrier [2]
DISC1 shRNA-1: shRNA targeting rat and mouse DISC1, SEQ ID NO:4, in pLentiLox 3.7 vector (GGCAAACACTGTGAAGTGC) | 18.2±2.2 | 53.2±6.1 | 36.7±4.2 | 13 | 59.6 | 3.8±0.8 | –
Cn1cc(C2=C(c3ccc(Cl)cc3Cl)C(=O)NC2=O)c2ccccc21 [SB-216763] | – | – | – | – | – | – | cross the blood-brain barrier

Source: patent US10124035B2, “DISC-1 pathway activators in the control of neurogenesis” (Massachusetts Institute of Technology, priority 2008, dated 2018)
